Test results published in patent publication US9554990B2, “Cholecystokinin secretion-promoting composition” (J-OIL MILLS, INC., priority 2012, dated 2017).

Legend:
[1] = tested on: Mouse intestinal CCK-producing cell line STC-1; assay: Confirmation test of CCK secretion-stimulating activity (CCK in supernatant, enzyme immunoassay); format: cell-based; design: key to CCK secretion-promoting activity Significant difference from vehicle Group 3 / CCK secretion-promoting activity Significant difference from vehicle Group 4 / CCK secretion-promoting activity Significant difference from vehicle Group 1 / CCK secretion-promoting activity Significant difference from vehicle Group 5: *: A significant difference (P < 0.05) was found; —: No significant difference was found; conditions: for CCK secretion-promoting activity Significant difference from vehicle Group 1: experimental group 1; for CCK secretion-promoting activity Significant difference from vehicle Group 3: experimental group 3; for CCK secretion-promoting activity Significant difference from vehicle Group 4: experimental group 4; for CCK secretion-stimulating activity (in words): single test material
Procedure: As a condition for maximizing the secretion amount of CCK in a cell test system, 70 mM KCl (positive control) causing hormone release by depolarization was prepared.
Since the number of materials that can be tested at once is restricted, the test materials were divided into five groups as shown in Table 1. In order to solve the discontinuity between experimental groups, every group included trans,trans-2,4-decadienal. Each test material was tested three times, and the average value of the results was calculated.
The test materials were each dissolved in ethanol, and each solution was diluted with Hepes buffer (140 mM NaCl, 4.5 mM KCl, 20 mM Hepes, 1.2 mM CaCl2, 1.2 mM MgCl2, and 10 mM D-glucose, pH 7.4) to give a 0.1 vol % ethanol solution, which was used as the evaluation solution.
Mouse intestinal CCK-producing cell line STC-1 was cultured in a 48-well plate for two to three days until subconfluent in a Dulbecco's modified Eagle's medium containing 10% bovine fetal serum at 37° C. in the presence of 5% CO2. After the wells were washed with Hepes buffer, 100 μL of the evaluation solution containing 100 μM of a test material was added to a well, followed by incubation at 37° C. for 60 minutes. The supernatant was collected and was centrifuged (800×g, 5 min, 4° C.) to precipitate the exfoliated cells. The resulting supernatant (80 μL) was collected and was cryopreserved. The concentration of CCK in the supernatant was measured with a commercially available enzyme immunoassay kit (manufactured by Phoenix Pharmaceuticals, Inc.).
In order to investigate the change in the secretion amount of CCK by addition of a test material to the cells in a general condition, a value obtained by subtracting the measured value of the vehicle from the measured value of a sample was used as the true value, and the score of the CCK secretion-stimulating activity was determined by dividing the true value by the value of 70 mM KCl as a control. The variance was analyzed for each experimental group. The difference in variance between an experimental group and the vehicle was examined for determining whether there was a significant difference (P<0.05). […]

[2] = swallowing; cited from earlier work
[3] = Table 2A, 100 μM test material, 60 minutes, STC-1, (sample minus vehicle) divided by value of 70 mM KCl control
[4] = Table 2B, 100 μM test material, 60 minutes, STC-1, (sample minus vehicle) divided by value of 70 mM KCl control
[5] = Table 3, single ingredient (100 μM) or control, relative to 70 mM KCl

[Cl-].[K+] [70 mM KCl, KCl]
CCK secretion-promoting activity Score [1, 3]: 1
CCK secretion-promoting activity Score [1, 4]: 1
CCK secretion-promoting activity Score [1, 5]: 1

CCCC=O.CCCC=O [Comparative Example 1, butanal (butyraldehyde)]
CCK secretion-promoting activity Score [1, 4]: 0.017
CCK secretion-promoting activity Significant difference from vehicle Group 1 ([1]; Table 2B, 100 μM): —

CC/C=C\CCC=O [Comparative Example 11, cis-4-heptenal]
CCK secretion-promoting activity Score [1, 4]: −0.001

C/C=C/C=C/C=O [Example 1, trans,trans-2,4-hexadienal]
CCK secretion-promoting activity Score [1, 3]: 0.840
CCK secretion-promoting activity Significant difference from vehicle Group 1 ([1]; Table 2A, 100 μM): * (A significant difference (P < 0.05) was found)

CC/C=C/C=C/C=O [Example 2, trans,trans-2,4-heptadienal]
CCK secretion-promoting activity Score [1, 3]: 0.885
CCK secretion-promoting activity Significant difference from vehicle Group 1 ([1]; Table 2A, 100 μM): * (A significant difference (P < 0.05) was found)

CCCC/C=C/C=C/C=O [Example 3, trans,trans-2,4-nonadienal]
CCK secretion-promoting activity Score [1, 3]: 0.975
CCK secretion-promoting activity Significant difference from vehicle Group 1 ([1]; Table 2A, 100 μM): * (A significant difference (P < 0.05) was found)

CCCCC/C=C/C=C/C=O [Example 4, trans,trans-2,4-decadienal]
CCK secretion-promoting activity Score [1, 3]: 1.088
CCK secretion-promoting activity Significant difference from vehicle Group 1 ([1]; Table 2A, 100 μM): * (A significant difference (P < 0.05) was found)
CCK secretion-promoting activity Significant difference from vehicle Group 3 ([1]; Table 2A, 100 μM): * (A significant difference (P < 0.05) was found)
CCK secretion-promoting activity Significant difference from vehicle Group 4 ([1]; Table 2A, 100 μM): * (A significant difference (P < 0.05) was found)
CCK secretion-promoting activity Significant difference from vehicle ([1]; Table 3, single ingredient (100 μM)): * (A significant difference (P < 0.05) was found)
CCK secretion-promoting activity Score [1, 5]: 1.088
CCK secretion-stimulating activity (in words) ([1]; STC-1): the highest

CCCCCCC/C=C/C=C/C=O [Example 5, trans,trans-2,4-dodecadienal]
CCK secretion-promoting activity Score [1, 3]: 0.720

C/C=C/C=O.C/C=C/C=O [Example 6, trans-2-butenal (crotonaldehyde)]
CCK secretion-promoting activity Score [1, 3]: 0.644
CCK secretion-promoting activity Significant difference from vehicle Group 1 ([1]; Table 2A, 100 μM): * (A significant difference (P < 0.05) was found)

CCCC/C=C/C=O [Example 7, trans-2-heptenal]
CCK secretion-promoting activity Score [1, 3]: 0.624
CCK secretion-promoting activity Significant difference from vehicle Group 1 ([1]; Table 2A, 100 μM): * (A significant difference (P < 0.05) was found)

CCCCC/C=C/C=O [Example 8, trans-2-octenal]
CCK secretion-promoting activity Score [1, 3]: 0.698
CCK secretion-promoting activity Significant difference from vehicle Group 4 ([1]; Table 2A, 100 μM): * (A significant difference (P < 0.05) was found)

CCCCCC/C=C/C=O [Example 9, trans-2-nonenal]
CCK secretion-promoting activity Score [1, 3]: 0.491
CCK secretion-promoting activity Significant difference from vehicle Group 3 ([1]; Table 2A, 100 μM): —

CCCCC/C=C/CCC=O [Example 10, trans-4-decenal]
CCK secretion-promoting activity Score [1, 3]: 0.441

CCCCC/C=C\CCC=O [Example 11, cis-4-decenal]
CCK secretion-promoting activity Score [1, 3]: 0.377
CCK secretion-promoting activity Significant difference from vehicle Group 4 ([1]; Table 2A, 100 μM): —

C=CC(=O)O [Example 12, acrylic acid]
CCK secretion-promoting activity Score [1, 3]: 0.957
CCK secretion-promoting activity Significant difference from vehicle Group 4 ([1]; Table 2A, 100 μM): * (A significant difference (P < 0.05) was found)

CCCCCCCC=O [compound 2, octanal]
CCK secretion-promoting activity Score [1, 4]: −0.004
CCK secretion-promoting activity Significant difference from vehicle Group 3 ([1]; Table 2B, 100 μM): —

CCCCCCCCC=O [compound 3, nonanal]
CCK secretion-promoting activity Score [1, 4]: −0.003
CCK secretion-promoting activity Significant difference from vehicle Group 1 ([1]; Table 2B, 100 μM): —

CCCCCCCCCC=O [compound 4, decanal]
CCK secretion-promoting activity Score [1, 4]: 0.042

CCCCCCCCCCC=O [compound 5, undecanal]
CCK secretion-promoting activity Score [1, 4]: 0.189

CCCCCCCCCCCC=O [compound 6, dodecanal]
CCK secretion-promoting activity Score [1, 4]: −0.093

CCCCCCCCCCCCC=O [compound 7, tridecanal]
CCK secretion-promoting activity Score [1, 4]: 0.049

CCCCCCC/C=C/C=O [compound 8, trans-2-decenal]
CCK secretion-promoting activity Score [1, 4]: 0.046

CCCCCCCC/C=C/C=O [compound 9, trans-2-undecenal]
CCK secretion-promoting activity Score [1, 4]: −0.137
CCK secretion-promoting activity Significant difference from vehicle Group 3 ([1]; Table 2B, 100 μM): —

CCCCCCCCC/C=C/C=O [compound 10, trans-2-dodecenal]
CCK secretion-promoting activity Score [1, 4]: −0.319
CCK secretion-promoting activity Significant difference from vehicle Group 3 ([1]; Table 2B, 100 μM): —

CC/C=C\CCCCC=O [compound 12, cis-6-nonenal]
CCK secretion-promoting activity Score [1, 4]: −0.648
CCK secretion-promoting activity Significant difference from vehicle Group 3 ([1]; Table 2B, 100 μM): —

CC/C=C\CCCCCC=O [compound 13, cis-7-decenal]
CCK secretion-promoting activity Score [1, 4]: 0.274

C=CCCCCCCCCC=O [compound 14, trans-10-undecenal]
CCK secretion-promoting activity Score [1, 4]: −0.458
CCK secretion-promoting activity Significant difference from vehicle Group 3 ([1]; Table 2B, 100 μM): —

C=CCO [compound 15, 2-propen-1-ol]
CCK secretion-promoting activity Score [1, 4]: 0.557
CCK secretion-promoting activity Significant difference from vehicle Group 4 ([1]; Table 2B, 100 μM): —

CCCCC/C=C/CO [compound 16, trans-2-octen-1-ol]
CCK secretion-promoting activity Score [1, 4]: 0.321
CCK secretion-promoting activity Significant difference from vehicle Group 4 ([1]; Table 2B, 100 μM): —

CCCCC/C=C\CCCO [compound 17, cis-4-decen-1-ol]
CCK secretion-promoting activity Score [1, 4]: −0.171
CCK secretion-promoting activity Significant difference from vehicle Group 4 ([1]; Table 2B, 100 μM): —

CCCCCCCCO [compound 18, 1-octanol]
CCK secretion-promoting activity Score [1, 4]: −0.134

CCCCCCCCCCO [compound 19, n-decyl alcohol]
CCK secretion-promoting activity Score [1, 4]: 0.070

CCCCCCCCCCCCO [compound 20, dodecyl alcohol]
CCK secretion-promoting activity Score [1, 4]: −0.304

CCCCCCCCCCCCCO [compound 21, n-tridecyl alcohol]
CCK secretion-promoting activity Score [1, 4]: −0.225

CCCCCC/C=C/C(C)=O [compound 22, trans-3-decen-2-one]
CCK secretion-promoting activity Score [1, 4]: 0.169

CCCCC/C=C/C(=O)O [compound 23, trans-2-octenoic acid]
CCK secretion-promoting activity Score [1, 4]: 0.146
CCK secretion-promoting activity Significant difference from vehicle Group 4 ([1]; Table 2B, 100 μM): —

CCCCCCCC(=O)O [compound 24, n-octanoic acid]
CCK secretion-promoting activity Score [1, 4]: −0.140

CCCCCCCCCC(=O)O [compound 25, decanoic acid]
CCK secretion-promoting activity Score [1, 4]: −0.207

CCCCCCCCCCCC(=O)O [compound 26, lauric acid]
CCK secretion-promoting activity Score [1, 4]: −0.225

CCCCCCCCCCCCC(=O)O [compound 27, n-tridecanoic acid]
CCK secretion-promoting activity Score [1, 4]: −0.234

CCCCCCCCCC [compound 28, decane]
CCK secretion-promoting activity Score [1, 4]: −0.224

C/C=C\CCCCCCC [compound 29, cis-2-decene]
CCK secretion-promoting activity Score [1, 4]: −0.208

C=CC=O [propenal]
CCK secretion-stimulating activity (in words) ([1]; STC-1): has a CCK-secreting activity
GHS class of acute toxicity [2]: class 2

trans,trans-1,9-decadiene [compound 30]
CCK secretion-promoting activity Score [1, 4]: −0.211
CCK secretion-promoting activity Significant difference from vehicle Group 5 ([1]; Table 2B, experimental group 5, 100 μM): —
